According to EP1161410B1, “RETINOID ANTAGONISTS AND USE THEREOF” (Basilea Pharmaceutica AG, priority 1999, dated 2000):

Columns and labels:
neonatal mouse calvaria = assay: Bone resorption assay, calcium release from neonatal mouse calvaria in tissue culture; type: cell-based, Swiss albino mice; conditions: for bone resorption induced by six different agents: inducers: calcitriol, all-trans RA, 9-cis RA, PGE2, TNFα, IL-1α (tables 6 to 11)
Procedure: A series of agents are known to induce or stimulate bone resorption. In this assay retinoid antagonists were tested for their capacity to inhibit or counteract the bone resorptive activity of bone resorption inducers.
Bone resorption was determined by quantification of calcium release from neonatal mouse calvaria (skull bones) in a tissue culture system, into supernatant medium. Calvaria were prepared from 4 days old mice (body weight 4-4.5 g) of time controlled mated Swiss albino mice. Frontal and parietal calvarial parts were dissected under a stereo-microscope and halved along the median suture. Half calvaria from all animals were randomly distributed to 6-well culture dishes (NUNC), containing stainless steel grids to support the bones at the interface of gas and medium. The tissue is incubated in BGJ medium (Bioconcept, Switzerland) according to a specified formulation supplemented with 1 mg/ml BSA (bovine serum albumin, SIGMA). Calvaria were cultured at 37°C in humidified atmosphere of 5% CO2 and 95% air. After 24 hours of preincubation, they were transferred to new dishes containing 1.7 ml fresh medium and test substances. Bone resorption inducers and retinoid antagonists were tested either as single agents or in combination. The cultures were then run for 72 hours. Calcium concentrations in culture supernatants were measured immediately after each incubation period. Stable, free calcium was determined in 25 µl samples with a spectrophotometric method using a methylthymol blue containing kit (Biomérieux), (E.M. Gindler and J.D. King, Am. J. Clin. Pathol. 1972, 58, 376-382). The resorptive response was expressed as µg calcium released per half calvarium during 3 days treatment.
Additional tests were done to examine calcium remaining in the calvaria. Calcium was extracted with 5% trichloroacetic acid (TCA) and determined in 50 µl samples after neutralization with NaOH. Furthermore, bone tissue viability was determined to exclude cytotoxicity. This was quantified by the colorimetric MTT tetrazolium test (T. Mosmann, J. Immunol. Methods 1983, 65, 55-63).
Bone resorption induced by the various agents was determined by measuring the amount of calcium released from half calvaria into the supernatant medium. Calcium release is indicated in µg per half calvarium in 1.7 ml medium. Calcium release from calvaria into medium as well as uptake of calcium from medium into calvaria can be measured. Efficacy of retinoid antagonists to inhibit the activity of bone resorption inducers is expressed as % inhibition. It is calculated from the difference between the amount of released calcium by bone resorption inducers alone and the amount of released calcium by their combination with retinoid antagonists. Retinoid antagonists alone induce neither calcium release nor uptake. Basal resorption rate in vehicle controls was 5 or less than 5%.

IL-10 = IL-10 production by activated monocytes (SAC + IFN-γ); type: cell-based, human; conditions: SAC+IFN-γ alone 1040 pg/ml
IL-12 [1] = assay: IL-12 production by PBMC primed with IFNγ and stimulated with SAC; type: cell-based, human; conditions: IFNγ+SAC alone 360
Procedure: (§1) THP-1 cells were obtained from American Tissue Culture Collection and cultured in complete medium. To assay for IL-12 production, THP-1 cells, 1.25 x 10^6 cells/ml, were stimulated with S. aureus Cowan strain (SAC) (1/1000) and human recombinant interferon-γ (huIFN-γ (1000 U/ml) [Ma et al., J. Exp. Med. 183, 147-157 (1996)]. Alternatively, 0.5 x 10^6 human peripheral blood mononuclear cells (PBMC) (1 ml culture in 48 well plates) were primed with huIFN-γ (1000 U/ml) for 16 hours at 37°C, and then stimulated with SAC (1/1000). Supernatants were collected after 48 hours and freezed at -20 °C until assayed [Panina-Bordignon et al., J. Clin. Invest. 100, 1513-1519 (1997)].
(§2) IL-12 production was measured by specific enzyme linked immuno sorbant assay (ELISA), using 20C2 antibody (rat anti human IL-12 heterodimer p40-p35), at 2.5 µg/ml in coating buffer, and peroxidase-conjugated 4D6 antibody (rat anti human IL-12) at 250 ng/ml in assay buffer as described [Zhang et al., J. Clin. Invest. 93, 1733-1739 (1994)]. Standard (recombinant human IL-12, 800 pg/ml to 6 pg/ml) and samples (100 µl) diluted in assay buffer were added to duplicate wells. Absorbance was read at 450-650 nm. The unknown IL-12 concentrations of the samples were read from the corresponding standard curve and multiplied by the corresponding dilution factor. Maximal IL-12 production varied between 200 and 400 pg/ml.
(§3) Lyophilized retinoid antagonists were diluted in DMSO under yellow light, on ice at a concentration of 2 mM. Serial dilutions (1 µM-1 pM) were prepared in complete RPMI medium. 10 µl of each dilution was added to 1 ml culture.

IL-12 [2] = assay: IL-12 production by activated monocytes (SAC + IFN-γ), ELISA; type: cell-based, human; conditions: SAC+IFN-γ alone 120-126 pg/ml
Procedure: THP-1 cells were obtained from American Tissue Culture Collection and cultured in complete medium. […] Exp. Med. 183, 147-157 (1996)]. […] Supernatants were collected after 48 hours and freezed at -20 °C until assayed [[…]-Bordignon et al., J. Clin. Invest. 100, 1513-1519 (1997)]. […] Clin. Invest. 93, 1733-1739 (1994)]. […] Absorbance was read at 450-650 nm. The unknown IL-12 concentrations of the samples were read from the corresponding standard curve and multiplied by the corresponding dilution factor. […] Serial dilutions (1 μM-1 pM) were prepared in complete RPMI medium. 10 μl of each dilution was added to 1 ml culture.

IL-12 [3] = assay: IL-12 production by THP-1 cells stimulated with IFNγ and SAC; type: cell-based, human; conditions: retinoid antagonist (1 µg) added at time 0 together with IFNγ, IFNγ+SAC alone 275
Procedure: as §1, §2, §3

[4] = 9-cis RA 0.1 μM + retinoid antagonist 1 μM
[5] = 9-cis RA 0.1 μM + retinoid antagonist 10 μM
[6] = 9-cis RA 1 μM + retinoid antagonist 10 μM
[7] = Calcitriol 0.3 nM + retinoid antagonist 1 µM
[8] = Calcitriol 1 nM + retinoid antagonist 1 µM
[9] = Calcitriol 3 nM + retinoid antagonist 1 µM
[10] = all-trans RA 0.1 μM + retinoid antagonist 1 μM
[11] = all-trans RA 0.1 μM + retinoid antagonist 10 μM
[12] = all-trans RA 1 μM + retinoid antagonist 10 μM
[13] = retinoid antagonist (1 µg) added after 16 hours together with SAC
[14] = retinoid antagonist (1 µg) added at time 0 together with IFNγ

Structure (SMILES)	Calcium release per half calvarium (neonatal mouse calvaria; [4])	Inhibition of bone resorption by retinoid antagonists (neonatal mouse calvaria; [4])	Calcium release per half calvarium (neonatal mouse calvaria; [5])	Inhibition of bone resorption by retinoid antagonists (neonatal mouse calvaria; [5])	Calcium release per half calvarium (neonatal mouse calvaria; [6])	Inhibition of bone resorption by retinoid antagonists (neonatal mouse calvaria; [6])	Calcium release per half calvarium (neonatal mouse calvaria; [7])	Inhibition of bone resorption by retinoid antagonists (neonatal mouse calvaria; [7])	Calcium release per half calvarium (neonatal mouse calvaria; [8])	Inhibition of bone resorption by retinoid antagonists (neonatal mouse calvaria; [8])	Calcium release per half calvarium (neonatal mouse calvaria; [9])	Inhibition of bone resorption by retinoid antagonists (neonatal mouse calvaria; [9])	Calcium release per half calvarium (neonatal mouse calvaria; [10])	Inhibition of bone resorption by retinoid antagonist (neonatal mouse calvaria; [10])	Calcium release per half calvarium (neonatal mouse calvaria; [11])	Inhibition of bone resorption by retinoid antagonist (neonatal mouse calvaria; [11])	Calcium release per half calvarium (neonatal mouse calvaria; [12])	Inhibition of bone resorption by retinoid antagonist (neonatal mouse calvaria; [12])	bone resorption induced by six different agents (neonatal mouse calvaria)	IL-10 (IL-10; antagonist 10 nM)	also measured
CCCCOc1c(\C(C)=C/C=C/C(C)=C/C(=O)O)cc(C(C)(C)C)cc1C(C)(C)C [Compound B, (2E,4E,6Z)-7-(3,5-di-tert.butyl-2-butyloxyphenyl]-3-methyl-2,4,6-octatrienoic acid]	2 ± 5 µg	33.3%	-4 ± 3 µg	123.5%	-6 ± 2 µg	133.3%	-1 ± 2 µg	125%	5 ± 3 µg	44.4%	4 ± 4 µg	69.2%	5 ± 4 µg	61.5%	-3 ± 4 µg	123.1%	10 ± 7 µg	41.2%	counteract bone resorption	1020 pg/mL	IL-10 (IL-10; antagonist 100 nM): 1521 pg/mL; IL-10 (IL-10; antagonist 1000 nM): 1700 pg/mL; PBMC IL-12 (IL-12 [1]; [13]): 367 pg/mL; PBMC IL-12 (IL-12 [1]; [14]): 568 pg/mL; IL-12 (IL-12 [2]; antagonist 10 nM): 106 pg/mL; IL-12 (IL-12 [2]; antagonist 100 nM): 161 pg/mL; IL-12 (IL-12 [2]; antagonist 1000 nM): 298 pg/mL; THP-1 IL-12 (IL-12 [3]): 577 pg/mL
CCCCCCCOc1cc2c(cc1/C(C)=C/c1ccc(C(=O)O)cc1)C(C)(C)CCS2(=O)=O [Compound H, p-[(E)-2-[3',4'-Dihydro-4',4'-dimethyl-7'-(beptyloxy)-2'H-1-benzothiopyran-6'-yl]propenyl]benzoic acid 1',1'-dioxide]	4 ± 5 µg	82%	-5 ± 3 µg	123%	28 ± 7 µg	30%	0 ± 3 µg	100%	4 ± 3 µg	55.6%	11 ± 6 µg	15.4%	2 ± 11 µg	89.5%	-5 ± 4 µg	126.3%	-2 ± 3 µg	108.7%	counteract bone resorption	1060 pg/mL	IL-10 (IL-10; antagonist 100 nM): 1050 pg/mL; IL-10 (IL-10; antagonist 1000 nM): 1343 pg/mL; PBMC IL-12 (IL-12 [1]; [13]): 401 pg/mL; PBMC IL-12 (IL-12 [1]; [14]): 503 pg/mL; IL-12 (IL-12 [2]; antagonist 100 nM): 102 pg/mL; IL-12 (IL-12 [2]; antagonist 1000 nM): 251 pg/mL; THP-1 IL-12 (IL-12 [3]): 306 pg/mL
